Series [1] in a line: serum/blood ionized Ca2+ in rats. The series is classed as in vivo, rat. How it is done:
Compounds shown to activate the bovine parathyroid cell calcium receptor in vitro were tested for hypocalcemic activity in vivo. Male Sprague-Dawley rats (200 g) were maintained on a low calcium diet for one week prior to receiving test substance or vehicle as control. Blood was collected from the tail vein three hours after the intraperitoneal administration of NPS 467. […] Serum total calcium, albumin and phosphate were measured by techniques well known in the art.
Rats (male, Sprague-Dawley, 250-300 g) were fed standard rat chow and fasted overnight prior to the experiment. NPS R-467 was suspended in corn oil and administered as a single oral dose through a gavage needle. Three hours later a sample of blood was taken from the tail vein and assessed for ionized Ca^2+ levels.

Series [2] concerns human parathyroid calcium receptor (HuPCaR 5.2) in HEK293 cells. Kind of series: intracellular calcium in HEK293 cells transfected with HuPCaR 5.2. It counts as cell-based. To be noted: Ca2+ 10 mM; Mg2+ 20 mM. Here is the method: Cells obtained from the pool of hygromycin selected HEK293 cells transfected with Cep4B containing the HuPCaR 5.2 insert were plated on collagen coated Aklar squares which had been placed into individual wells of 12-well tissue culture plates. Two to six days later, medium was removed and the cells washed with balanced salt solution and 1 ml of buffer containing 1 μM fura2-AM, 1 mM CaCl2 and 0.1% BSA and 1 mM CaCl2. Measurements of fluorescence in response to calcium receptor agonists were performed at 37° C. in a spectrofluorimeter using excitation and emission wavelengths of 340 and 510 nm, respectively. For signal calibration, Fmax was determined after addition of ionomycin (40 μM) and the apparent Fmin was determined by addition of 0.3M EGTA, 2.5M Tris-HCl; pH 10.

A short description of series [3]: serum ionized calcium in a human. The following applies: higher oral doses. The series is classed as in vivo. The text has this: (§1) A range of single oral doses was used to assess safety, tolerance, and changes in primary hyperparathyroidism markers (e.g., plasma concentrations of parathyroid hormone and ionized serum calcium) and of serum calcitonin.
The nature of series [4]: serum parathyroid hormone in a human. It counts as in vivo. To be noted: single oral doses 20-400 mg.
Text: as §1

Series [5] can be described thus: plasma calcitonin in rats. It counts as in vivo, rat. The following applies: p.o.
Series [6] is described as follows: serum calcitonin in a human. To be noted: single oral doses 20-400 mg. The series is classed as in vivo.
Text: as §1

Another series is described as follows: circulating PTH in rats. The series is classed as in vivo, rat.
Series [7] in a line: hypocalcemic response in nephrectomized rats. The series is classed as in vivo, rat. To be noted: oral. The text has this:
The decreases in serum levels of PTH together with. the resulting hypocalcemia are desirable therapeutic effects in cases of hyperparathyroidism.

Series [8] in a line: hypocalcemic response in thyroidectomized rats. The series is classed as in vivo, rat. The following applies: 3 to 100 mg/kg p.o. The text has this: In subsequent studies, rats received a thyroidectomy (parathyroid glands intact). This surgical procedure effectively removed the C-cells secreting calcitonin and therefore enabled the relative contributions of PTH and calcitonin to the hypocalcemic effect of this compound to be determined. […] The only difference was that the rate of onset of the hypocalcemic response was somewhat delayed in thyroidectomized animals. […] Stimulatory effects of this compound on calcitonin secretion increases the rate of onset, but not the extent, of hypocalcemia.

Series [9] deals with T1, human parathyroid cells (calcium receptor) (Homo sapiens, UniProt P41180).
T1 sequence (P41180 20-1078): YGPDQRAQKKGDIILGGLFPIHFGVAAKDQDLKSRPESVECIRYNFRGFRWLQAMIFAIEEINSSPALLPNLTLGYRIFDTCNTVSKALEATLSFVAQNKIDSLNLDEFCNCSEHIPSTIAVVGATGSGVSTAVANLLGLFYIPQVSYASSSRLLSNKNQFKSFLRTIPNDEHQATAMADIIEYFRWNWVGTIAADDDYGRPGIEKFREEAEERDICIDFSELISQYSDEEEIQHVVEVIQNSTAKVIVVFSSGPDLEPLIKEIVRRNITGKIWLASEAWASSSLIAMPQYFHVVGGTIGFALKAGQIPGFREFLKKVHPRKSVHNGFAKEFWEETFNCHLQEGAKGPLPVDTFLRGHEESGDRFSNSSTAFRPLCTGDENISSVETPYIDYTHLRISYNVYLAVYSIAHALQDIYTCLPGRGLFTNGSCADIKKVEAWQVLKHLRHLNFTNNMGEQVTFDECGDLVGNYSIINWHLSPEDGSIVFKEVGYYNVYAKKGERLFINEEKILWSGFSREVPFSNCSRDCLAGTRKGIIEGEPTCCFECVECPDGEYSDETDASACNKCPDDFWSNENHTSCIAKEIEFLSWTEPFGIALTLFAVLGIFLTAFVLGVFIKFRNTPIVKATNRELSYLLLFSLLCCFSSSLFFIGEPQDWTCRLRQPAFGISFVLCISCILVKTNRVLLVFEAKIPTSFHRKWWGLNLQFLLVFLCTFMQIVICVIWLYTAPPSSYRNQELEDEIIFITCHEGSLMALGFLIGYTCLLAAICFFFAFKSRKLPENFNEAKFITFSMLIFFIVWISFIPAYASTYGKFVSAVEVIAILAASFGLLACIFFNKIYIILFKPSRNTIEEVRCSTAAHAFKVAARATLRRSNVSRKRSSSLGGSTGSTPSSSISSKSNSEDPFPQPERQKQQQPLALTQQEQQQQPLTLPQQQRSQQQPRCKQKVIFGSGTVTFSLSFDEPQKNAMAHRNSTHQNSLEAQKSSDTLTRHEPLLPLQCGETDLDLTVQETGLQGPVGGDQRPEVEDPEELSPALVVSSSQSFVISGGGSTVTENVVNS
It counts as cell-based.
Procedure: Human parathyroid glands, were obtained from patients undergoing surgical removal of parathyroid tissue for primary or uremic hyperparathyroidism (uremic HPT), and were treated similarly to bovine tissue.
(§2) The cells were then pelleted, resuspended in the same buffer, but lacking the ester, and incubated a further 15 minutes at 37° C. The cells were subsequently washed twice with PCB containing 0.5 mM CaCl2 and 0.5% BSA and maintained at room temperature (about 20° C.). Immediately before use, the cells were diluted five-fold with prewarmed 0.5 mM CaCl2 -PCB to obtain a final BSA concentration of 0.1%. The concentration of cells in the cuvette used for fluorescence recording was 1-2×10^6 /ml.
(§3) The fluorescence of indicator-loaded cells was measured at 37° C. in a spectrofluorimeter (Biomedical Instrumentation Group, University of Pennsylvania, Philadelphia, Pa.) equipped with a thermostated cuvette holder and magnetic stirrer using excitation and emission wavelengths of 340 and 510 nm, respectively. […] Leakage of dye is dependent on temperature and most occurs within the first 2 minutes after warming the cells in the cuvette. Dye leakage increases only very slowly thereafter. To correct the calibration for dye leakage, cells were placed in the cuvette and stirred at 37° C. for 2-3 minutes. The cell suspension was then removed, the cells pelleted, and the supernatant returned to a clean cuvette. […] This estimate was subtracted from the apparent Fmin.

The next series can be described thus: net positive charge. It counts as physicochemical.
Series [10] deals with PTH secretion from human parathyroid cells. Briefly: PTH secretion from human parathyroid cells. The series is classed as cell-based. The following applies: human (adenoma) parathyroid cells. How it is done:
PTH secretion was measured by first suspending cells in PCB containing 0.5 mM CaCl2 and 0.1% BSA.
For human cells, a commercially available radioimmunoassay kit (INS-PTH; Nichols Institute, Los Angeles, Calif.) which recognizes intact and N-terminal human PTH was used because GW-1 antibody recognizes human PTH poorly.

Series [11] deals with increases in [Ca2+]i elicited by extracellular Ca2+ in bovine parathyroid cells. Kind of series: block of extracellular Ca2+-induced [Ca2+]i increase / Ca2+ influx in bovine parathyroid cells. The series is classed as cell-based. To be noted: 30 μM.
Procedure: as §2, §3
The mark [12] stands for this setting: 10 mg/kg i.p., single dose, normal diet.

“Also recorded” adds a separate entry of the source. Read-outs that look alike come from different tables or passages of the source.

Turning to `COc1cccc([C@@H](C)NCCCc2ccccc2)c1` (single isomer, unassigned) [NPS R-467], in [1] (setting [12]), the “decrease in serum ionized Ca2+ from the control level” value was found to be 22% and the “time to maximal fall in serum ionized Ca2+” value is no more than 1 h. Also, the “serum ionized Ca2+, oral” value in series [1] (single oral dose in corn oil, 3 hours) is recorded as “lowers serum ionized calcium; also recorded: dose-dependent reduction in serum levels of ionized”. For the same compound, the “increase in intracellular calcium” value in series [2] is recorded as “Robust increases”.
For the compound `COc1cccc([C@@H](C)NCCCc2ccccc2Cl)c1` [NPS R-568, (R)-(+)-N-[3-(2-chlorophenyl)propyl]-amethyl-α-3-methoxybenzylamine], the “serum ionized calcium in human” value in series [3] is on record as “decrease in serum ionized calcium concentration”. In [4], the “plasma PTH in human” value is reported as “transient dose-dependent decrease in plasma PTH concentration”. The “plasma calcitonin” value in [5] is on record as “an increase in calcitonin”. The “serum calcitonin in human” value in series [6] was “no apparent change in serum calcitonin”. In addition, in series [1] (p.o., rats), the “plasma Ca2+” value is given as “rapid, dose-dependent decrease”. In the series “circulating PTH in rats”, the “circulating levels of PTH” value is listed as “decreases in the levels of serum PTH; also recorded: rapid, dose-dependent decrease”. The “hypocalcemic response after complete nephrectomy” value in [7] is given as “only marginally affected”. For the same compound, the “hypocalcemic response in thyroidectomized vs sham-operated animals” value in series [8] is “equal in magnitude to that produced in sham-operated animals”.
With `NC[C@@H]1O[C@H](O[C@H]2[C@@H](O)[C@H](O[C@@H]3[C@@H](O)[C@H](N)C[C@H](N)[C@H]3O[C@H]3O[C@H](CN)[C@@H](O)[C@H](O)[C@H]3N)O[C@@H]2CO)[C@H](N)[C@@H](O)[C@@H]1O` [Neomycin], the “increase in [Ca2+]i (words)” value in series [9] (20 μM) was “evoked a large increase”; in series [9] (human adenomatous tissue, 0.5 mM extracellular Ca2+, neomycin B 10 μM in FIG. 19, listed as Neomycin B), “not only a transient, but additionally a steady-state increase”; in series [9] (human adenomatous tissue, 0.5 mM extracellular Ca2+, neomycin B 10 μM in FIG. 19, listed as neomycin B), “transient and sustained increases”. The “Net (+) Charge (Table 1)” value in “net positive charge” is recorded as “+6”. Moreover, the “net positive charge” value in “net positive charge” and in the series “net positive charge” (pH 7.3) was “+6” in each case. Also, the figures for the “inhibition of PTH secretion” value in series [10] (listed as Neomycin B) and in series [10] (listed as neomycin B) were “inhibited PTH secretion” and “inhibit PTH secretion”, respectively. The “effect on [Ca2+]i increases elicited by extracellular Ca2+” value in series [11] was “blocks transient, but does not block steady-state increases”.

Values taken from patent US5858684A, “Method of screening calcium receptor-active molecules” (priority 1995, dated 1999).
